Measurements reported in ChEMBL document CHEMBL2016471, “5-benzylidenerhodanine and 5-benzylidene-2-4-thiazolidinedione based antibacterials” (2012).
Converted amounts (≈) assume the structure as drawn. The source made the active and inactive calls. The calls are words filed in the database; no cut-off is given here.

Assays:
[1] = system: Bacillus subtilis; experiment: Antibacterial activity against Bacillus subtilis ATCC 6633; format: functional
[2] = system: Escherichia coli; experiment: Antibacterial activity against Escherichia coli K-12; format: functional, organism-based
[3] = system: Staphylococcus epidermidis; experiment: Antibacterial activity against Staphylococcus epidermidis; format: functional
[4] = system: Staphylococcus aureus; experiment: Antibacterial activity against Staphylococcus aureus ATCC 31890; format: functional
[5] = system: Staphylococcus aureus; experiment: Bacteriostatic activity against Staphylococcus aureus after 6 hrs; format: functional, organism-based
[6] = system: Escherichia coli; experiment: Antibacterial activity against TolC-deficient Escherichia coli; format: functional

| Compound | MIC [1] | Activity [2] | MIC [3] | MIC [4] | Activity [5] | MIC [6] |
| --- | --- | --- | --- | --- | --- | --- |
| CCCc1ccccc1NC(=O)[C@H](CC(C)C)NC(=O)c1ccc(/C=C2\SC(=S)NC2=O)cc1 | 32 µg/mL (≈ 64.6 µM) | inactive | > 64 µg/mL | > 64 µg/mL | – | – |
| CCCc1ccccc1OC[C@H](O)COc1ccc(/C=C2\SC(=O)NC2=O)cc1 | 8 µg/mL (≈ 19.3 µM) | inactive | > 64 µg/mL | > 64 µg/mL | – | – |
| CCCc1ccccc1NC(=O)[C@H](COCc1ccccc1)NC(=O)c1ccc(/C=C2\SC(=S)NC2=O)cc1 | 8 µg/mL (≈ 14.3 µM) | inactive | > 64 µg/mL | > 64 µg/mL | – | – |
| O=C1NC(=O)/C(=C/c2ccccc2)S1 | > 64 µg/mL | inactive | > 64 µg/mL | > 64 µg/mL | – | – |
| CCCc1ccccc1NC(=O)[C@H](Cc1ccccc1)NC(=O)c1ccc(/C=C2\SC(=O)NC2=O)cc1 | 8 µg/mL (≈ 15.6 µM) | inactive | > 64 µg/mL | > 64 µg/mL | – | – |
| O=C1NC(=S)S/C1=C\c1ccco1 | > 64 µg/mL | inactive | 16 µg/mL (≈ 75.7 µM) | 16 µg/mL (≈ 75.7 µM) | – | – |
| CCCc1ccccc1OC[C@H](O)COc1ccc(/C=C2\SC(=S)NC2=O)cc1 | 16 µg/mL (≈ 37.2 µM) | inactive | 32 µg/mL (≈ 74.5 µM) | 16 µg/mL (≈ 37.2 µM) | Active | – |
| O=C1NC(=O)/C(=C/c2ccc(C(=O)O)cc2)S1 | > 64 µg/mL | inactive | > 64 µg/mL | > 64 µg/mL | – | – |
| CCCc1ccccc1NC(=O)[C@H](C)NC(=O)c1ccc(/C=C2\SC(=S)NC2=O)cc1 | 32 µg/mL (≈ 70.5 µM) | inactive | > 64 µg/mL | > 64 µg/mL | – | – |
| CCCc1ccccc1NC(=O)[C@H](CO)NC(=O)c1ccc(/C=C2\SC(=S)NC2=O)cc1 | > 64 µg/mL | inactive | > 64 µg/mL | > 64 µg/mL | – | – |
| CCCc1ccccc1NC(=O)[C@H](CC(C)C)NC(=O)c1ccc(/C=C2\SC(=O)NC2=O)cc1 | 8 µg/mL (≈ 16.7 µM) | inactive | > 64 µg/mL | > 64 µg/mL | – | – |
| CCCc1ccccc1NC(=O)[C@H](CO)NC(=O)c1ccc(/C=C2\SC(=O)NC2=O)cc1 | > 64 µg/mL | inactive | > 64 µg/mL | > 64 µg/mL | – | – |
| O=C1NC(=S)S/C1=C\c1ccc(C(=O)O)cc1 | > 64 µg/mL | inactive | > 64 µg/mL | > 64 µg/mL | – | – |
| CCCc1ccccc1NC(=O)[C@H](COC(C)(C)C)NC(=O)c1ccc(/C=C2\SC(=S)NC2=O)cc1 | 8 µg/mL (≈ 15.2 µM) | inactive | 16 µg/mL (≈ 30.4 µM) | 16 µg/mL (≈ 30.4 µM) | – | – |
| CCCc1ccccc1NC(=O)[C@H](Cc1ccc(O)cc1)NC(=O)c1ccc(/C=C2\SC(=S)NC2=O)cc1 | 8 µg/mL (≈ 14.7 µM) | inactive | > 64 µg/mL | > 64 µg/mL | – | – |
| O=C1NC(=O)/C(=C/c2cccnc2)S1 | > 64 µg/mL | inactive | > 64 µg/mL | > 64 µg/mL | – | – |
| CCCc1ccccc1NC(=O)[C@H](C)NC(=O)c1ccc(/C=C2\SC(=O)NC2=O)cc1 | > 64 µg/mL | inactive | > 64 µg/mL | > 64 µg/mL | – | – |
| O=C1NC(=S)S/C1=C\c1ccc2ccccc2c1 | > 64 µg/mL | inactive | 0.5 µg/mL (≈ 1.84 µM) | 0.5 µg/mL (≈ 1.84 µM) | – | 8 µg/mL (≈ 29.5 µM) |
| CCCc1ccccc1NC(=O)[C@H](Cc1ccccc1)NC(=O)c1ccc(/C=C2\SC(=S)NC2=O)cc1 | > 64 µg/mL | inactive | > 64 µg/mL | > 64 µg/mL | – | – |
